Key:
Type in all cases: cell-based, human
ALS patient iMNs = test: iMN survival assay in ALS patient motor neurons (line type not specified); conditions: hR vs DMSO
Method: (§1) Daily imaging was performed to collect data at multiple time points over ˜2 weeks, and then analysis of the data enabled single cell longitudinal tracking during the progressive stages of cell death. The hazard ratio (hR) derived from the Cox model is used to indicate the survival rate of neurons, where a ratio greater than 1 indicates a negative association with survival. A P value is also calculated, which functions as a statistical test of the two hazard functions using the Wald test. In addition, a standard deviation, which replicates the hR value, and survival curves are calculated and graphed. […]
(§2) Induced neuron survival assay: Hb9::RFP^+iMNs appeared between days 13-16 after retroviral transduction. […] Neurons were scored as dead when their soma was no longer detectable by RFP fluorescence. All neuron survival assays were performed at least twice, with equal numbers of neurons from three individual replicates from one of the trials being used for the quantification shown. All trials quantified were representative of other trials of the same experiment. […]

sporadic ALS (sALS) iMNs = test: iMN survival assay in sporadic ALS lines; conditions: screen hits
Method: as §1, §2

[1] = system: healthy control iMN lines; test: iMN survival assay in healthy control lines; conditions: 1 μM, 3 weeks, five healthy control lines
Method: as §1, §2

C9-ALS iMN lines = test: iMN survival assay (longitudinal tracking, hazard ratio vs DMSO) in C9-ALS lines; conditions: 3 μM, 2 weeks, media change every 3 days, three C9-ALS iMN lines
Method: as §1, §2

| SMILES | performance in patient motor neurons (hR) of drugs tested in ALS clinical trials (ALS patient iMNs) | potency among hit compounds efficacious against sporadic ALS patient iMNs (sporadic ALS (sALS) iMNs) | iMN survival, treatment vs DMSO group [1] | iMN survival, hazard ratio of treatment vs DMSO (C9-ALS iMN lines) |
| --- | --- | --- | --- | --- |
| Nc1nc2ccc(OC(F)(F)F)cc2s1 [riluzole] | do best | – | – | – |
| CC1=NN(c2ccccc2)C(=O)C1 [edaravone] | do best | – | – | – |
| Cc1cccc(/C=N/Nc2cc(N3CCOCC3)nc(OCCc3ccccn3)n2)c1 [Apilimod] | – | among the most potent | No significance difference | significant beneficial effect |
